ChEMBL document CHEMBL1146065, “Structure-based optimization of azole antifungal agents by CoMFA, CoMSIA, and molecular docking” (2006)
Values after ≈ are worked out from the molar mass of the structure shown.

Experiments:
Trichophyton rubrum = assay: Antifungal activity against Trichophyton rubrum; type: functional
Cryptococcus neoformans = assay: Antifungal activity against Cryptococcus neoformans; type: functional
Candida parapsilosis = assay: Antifungal activity against Candida parapsilosis; type: functional; settings: Lodderomyces parapsilosis
Candida tropicalis = assay: Antifungal activity against Candida tropicalis; type: functional
Trichophyton violaceum = assay: Antifungal activity against Trichophyton violaceum; type: functional
Fonsecaea pedrosoi = assay: Antifungal activity against Fonsecaea pedrosoi; type: functional
Trichophyton benhamiae = assay: Antifungal activity against Trichophyton mentagrophytes; type: functional, Arthroderma benhamiae
Nannizzia gypsea = assay: Antifungal activity against Microsporum gypseum; type: functional
Candida albicans = assay: Antifungal activity against Candida albicans; type: functional
Epidermophyton floccosum = assay: Antifungal activity against Epidermophyton floccosum; type: functional
Sporothrix schenckii = assay: Antifungal activity against Sporothrix schenckii; type: functional
Aspergillus fumigatus = assay: Antifungal activity against Aspergillus fumigatus; type: functional
Microsporum = assay: Antifungal activity against Microsporum lanosum; type: functional

Row | SMILES | MIC80 (Trichophyton rubrum) [µg/mL] | MIC80 (Cryptococcus neoformans) [µg/mL] | MIC80 (Candida parapsilosis) [µg/mL] | MIC80 (Candida tropicalis) [µg/mL] | MIC80 (Trichophyton violaceum) [µg/mL] | MIC80 (Fonsecaea pedrosoi) [µg/mL] | MIC80 (Trichophyton benhamiae) [µg/mL] | MIC80 (Nannizzia gypsea) [µg/mL] | MIC80 (Candida albicans) [µg/mL] | MIC80 (Epidermophyton floccosum) [µg/mL] | MIC80 (Sporothrix schenckii) [µg/mL] | MIC80 (Aspergillus fumigatus) [µg/mL] | MIC80 (Microsporum) [µg/mL]
1 | CN(Cc1ccc(I)cc1)CC(O)(Cn1cncn1)c1ccc(F)cc1F (configuration not stated) | ≤ 0.125 | ≤ 0.125 | 0.25 (≈ 0.516 µM) | ≤ 0.125 | < 0.0625 | ≤ 0.125 | < 0.0625 | < 0.0625 | 0.032 (≈ 0.0661 µM) | < 0.0625 | 16 (≈ 33 µM) | ≤ 0.125 | < 0.0625
2 | CN(C/C=C/C#CC(C)(C)C)Cc1cccc2ccccc12 [TERBINAFINE] | ≤ 0.125 | 4 (≈ 13.7 µM) | 16 (≈ 54.9 µM) | 16 (≈ 54.9 µM) | 4 (≈ 13.7 µM) | ≤ 0.125 | > 32 | 0.5 (≈ 1.72 µM) | 16 (≈ 54.9 µM) | > 32 | 2 (≈ 6.86 µM) | 0.25 (≈ 0.858 µM) | 32 (≈ 110 µM)
3 | CC(=O)N1CCN(c2ccc(OCC3COC(Cn4ccnc4)(c4ccc(Cl)cc4Cl)O3)cc2)CC1 (configuration not stated) [KETOCONAZOLE] | ≤ 0.125 | ≤ 0.125 | ≤ 0.125 | ≤ 0.125 | 0.25 (≈ 0.47 µM) | ≤ 0.125 | < 0.0625 | < 0.0625 | 0.0625 (≈ 0.118 µM) | < 0.0625 | 0.5 (≈ 0.941 µM) | 1 (≈ 1.88 µM) | < 0.0625
4 | CN(Cc1ccc(Cl)c(Cl)c1)CC(O)(Cn1cncn1)c1ccc(F)cc1F (configuration not stated) | ≤ 0.125 | ≤ 0.125 | 1 (≈ 2.34 µM) | ≤ 0.125 | 4 (≈ 9.36 µM) | ≤ 0.125 | < 0.0625 | 16 (≈ 37.4 µM) | 0.016 (≈ 0.0374 µM) | < 0.0625 | 32 (≈ 74.9 µM) | 4 (≈ 9.36 µM) | 8 (≈ 18.7 µM)
5 | CN(Cc1cccc(I)c1)CC(O)(Cn1cncn1)c1ccc(F)cc1F (configuration not stated) | ≤ 0.125 | ≤ 0.125 | 1 (≈ 2.06 µM) | ≤ 0.125 | < 0.0625 | ≤ 0.125 | < 0.0625 | 0.125 (≈ 0.258 µM) | 1 (≈ 2.06 µM) | < 0.0625 | 64 (≈ 132 µM) | 8 (≈ 16.5 µM) | < 0.0625

Second part, the molecule after the results:

Row | MIC80 (Trichophyton rubrum) [µg/mL] | MIC80 (Cryptococcus neoformans) [µg/mL] | MIC80 (Candida parapsilosis) [µg/mL] | MIC80 (Candida tropicalis) [µg/mL] | MIC80 (Trichophyton violaceum) [µg/mL] | MIC80 (Fonsecaea pedrosoi) [µg/mL] | MIC80 (Trichophyton benhamiae) [µg/mL] | MIC80 (Nannizzia gypsea) [µg/mL] | MIC80 (Candida albicans) [µg/mL] | MIC80 (Epidermophyton floccosum) [µg/mL] | MIC80 (Sporothrix schenckii) [µg/mL] | MIC80 (Aspergillus fumigatus) [µg/mL] | MIC80 (Microsporum) [µg/mL] | SMILES
6 | 32 (≈ 85 µM) | 0.5 (≈ 1.33 µM) | ≤ 0.125 | 0.25 (≈ 0.664 µM) | 2 (≈ 5.31 µM) | 1 (≈ 2.66 µM) | < 0.0625 | 8 (≈ 21.3 µM) | 0.5 (≈ 1.33 µM) | < 0.0625 | 64 (≈ 170 µM) | 8 (≈ 21.3 µM) | 0.5 (≈ 1.33 µM) | CN(Cc1ccccc1F)CC(O)(Cn1cncn1)c1ccc(F)cc1F (configuration not stated)
7 | 0.25 (≈ 0.549 µM) | ≤ 0.125 | ≤ 0.125 | ≤ 0.125 | 2 (≈ 4.39 µM) | ≤ 0.125 | < 0.0625 | 32 (≈ 70.3 µM) | 0.032 (≈ 0.0703 µM) | < 0.0625 | 64 (≈ 141 µM) | 0.5 (≈ 1.1 µM) | 1 (≈ 2.2 µM) | CN(Cc1ccc(Br)cc1F)CC(O)(Cn1cncn1)c1ccc(F)cc1F (configuration not stated)
8 | ≤ 0.125 | ≤ 0.125 | 0.25 (≈ 0.636 µM) | ≤ 0.125 | 0.5 (≈ 1.27 µM) | 0.25 (≈ 0.636 µM) | < 0.0625 | 4 (≈ 10.2 µM) | 0.032 (≈ 0.0815 µM) | < 0.0625 | 32 (≈ 81.5 µM) | 8 (≈ 20.4 µM) | 0.25 (≈ 0.636 µM) | CN(Cc1ccccc1Cl)CC(O)(Cn1cncn1)c1ccc(F)cc1F (configuration not stated)
9 | 1 (≈ 2.2 µM) | ≤ 0.125 | 0.25 (≈ 0.549 µM) | ≤ 0.125 | 2 (≈ 4.39 µM) | 0.25 (≈ 0.549 µM) | 0.125 (≈ 0.275 µM) | 32 (≈ 70.3 µM) | 0.032 (≈ 0.0703 µM) | < 0.0625 | 64 (≈ 141 µM) | 4 (≈ 8.79 µM) | 4 (≈ 8.79 µM) | CN(Cc1ccc(F)cc1Br)CC(O)(Cn1cncn1)c1ccc(F)cc1F (configuration not stated)
